Assay results reported in EP4582426A1, “PAN-KRAS INHIBITOR COMPOUND” (Adlai Nortye Biopharma Co., Ltd., priority 2022, dated 2024).

Columns and labels:
SW480 (G12V) = assay: In vitro cell proliferation inhibition test (CellTiter-Glo Luminescent Cell Viability Assay); assay type: cell-based; settings: SW480 cell line, Large intestine, Colon, KRAS (p.G12V), cells and compounds co-incubated 72 hours
Method in brief: (§1)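 Cells were seeded at 1000-5000/well and cultured overnight, then exposed to compound (top final 10 µM, ten 3-fold dilutions) for 72 h at 37°C, 5% CO2. Viability was read by CellTiter-Glo luminescence; IC50 was obtained from four-parameter fits of normalized signal.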

AsPC-1 (G12D) = assay: as above; assay type: cell-based; settings: AsPC-1 cell line, Pancreas, KRAS (p.G12D), cells and compounds co-incubated 72 hours
Method in brief: as §1

Compound	IC50 (SW480 (G12V)) [nM]	IC50 (AsPC-1 (G12D)) [nM]	also measured
CCn1c(-c2cc(C#C[C@@H]3CCN3C)cnc2[C@H](C)OC)c2c3cc(ccc31)-c1csc(n1)C[C@H](NC(=O)[C@H]1C[C@@H]1C)C(=O)N1CCC[C@H](N1)C(=O)OCC(C)(C)C2 [Example 13, (1S,2S)-N-((63S,4S,Z)-11-ethyl-12-(2-((S)-1-methoxyethyl)-5-(((S)-1-methylazetidin-2-yl)ethynyl)pyridin-3-yl)-10,10-dimethyl-5,7-dioxo-61,62,63,64,65,66-hexahydro-11H-8-oxa-2(4,2)-Thiazola-1(5,3)-indola-6(1,3)-pyridazinacyclonecaphane-4-yl)-2-methylcyclopropane-1-carboxamide]	7590	5.7	IC50 (AsPC-1 (G12D); listed as 13'): 2820 nM
CCn1c(-c2cc(C#CC3CCN(C)C3)cnc2C(C)OC)c2c3cc(ccc31)-c1csc(n1)CC(NC(=O)C1C(C)C1C)C(=O)N1CCCC(N1)C(=O)OCC(C)(C)C2 (single isomer, unassigned) [Example 18]	0.42	3.4	–
CCn1c(-c2cc(C#CCN3CCP(C)(=O)CC3)cnc2[C@H](C)OC)c2c3cc(ccc31)-c1csc(n1)C[C@H](NC(=O)[C@H]1C[C@@H]1C)C(=O)N1CCC[C@H](N1)C(=O)OCC(C)(C)C2 [Example 49, (1S,2S)-N-((6^3S,4S,Z)-1^1-ethyl-1^2-(2-((S)-1-methoxyethyl)-5-(3-(4-methyl-4-oxido-1,4-azaphosphinan-1-yl)prop-1-yn-1-yl)pyridin-3-yl)-10,10-dimethyl-5,7-dioxo-6^1,6^2,6^3,6^4,6^5,6^6-hexahydro-1^1H-8-oxa-2(4,2)-thiazola-1(5,3)-indola-6(1,3)-pyridazinacycloundecaphane-4-yl)-2-methylcyclopropane-1-carboxamide]	9.2	7.5	–
CCn1c(-c2cc(C#CCN3CCCCC3)cnc2[C@H](C)OC)c2c3cc(ccc31)-c1csc(n1)C[C@H](NC(=O)[C@H]1C[C@@H]1C)C(=O)N1CCC[C@H](N1)C(=O)OCC(C)(C)C2 [Example 59, (1S,2S)-N-((6^3S,4S,Z)-1^1-ethyl-1^2-(2-((S)-1-methoxyethyl)-5-(3-(piperidin-1-yl)prop-1-yn-1-yl)pyridin-3-yl)-10,10-dimethyl-5,7-dioxo-6^1,6^2,6^3,6^4,6^5,6^6-hexahydro-1^1H-8-oxa-2(4,2)-thiazola-1(5,3)-indola-6(1,3)-pyridazinacycloundecaphane-4-yl)-2-methylcyclopropane-1-carboxamide]	1.76	0.96	–
CCn1c(-c2cc(C#CC3CN(C)CCO3)cnc2C(C)OC)c2c3cc(ccc31)-c1csc(n1)CC(NC(=O)C1CC1C)C(=O)N1CCCC(N1)C(=O)OCC(C)(C)C2 (single isomer, unassigned) [Example 8]	18.9	17.9	IC50 (SW480 (G12V); listed as 8'): 2030 nM; IC50 (AsPC-1 (G12D); listed as 8'): 3870 nM
CCn1c(-c2cc(C#Cc3cccc4c3ccn4C)cnc2[C@H](C)OC)c2c3cc(ccc31)-c1csc(n1)C[C@H](NC(=O)[C@H]1C[C@@H]1C)C(=O)N1CCC[C@H](N1)C(=O)OCC(C)(C)C2 [Example 56, (1S,2S)-N-((6^3S,4S,Z)-1^1-ethyl-1^2-(2-((S)-1-methoxyethyl)-5-((1-methyl-1H-indol-4-yl)ethynyl)pyridin-3-yl)-10,10-dimethyl-5,7-dioxo-6^1,6^2,6^3,6^4,6^5,6^6-hexahydro-1^1H-8-oxa-2(4,2)-thiazola-1(5,3)-indola-6(1,3)-pyridazinacycloundecaphane-4-yl)-2-methylcyclopropane-1-carboxamide]	487	291	–
CCNc1cccc(C#Cc2cnc([C@H](C)OC)c(-c3c4c5cc(ccc5n3CC)-c3csc(n3)C[C@H](NC(=O)[C@H]3C[C@@H]3C)C(=O)N3CCC[C@H](N3)C(=O)OCC(C)(C)C4)c2)n1 (single isomer, unassigned) [Example 31]	100	78	–
(1S,2S)-N-((63S,4S,Z)-1^1-ethyl-1^2-(2-((S)-1-methoxyethyl)-5-((1-methylpiperidin-4-yl)ethynyl)pyridin-3-yl)-10,10-dimethyl-5,7-dioxo-6^1,6^2,6^3,6^4,6^5,6^6-hexahydro-1^1H-8-oxa-2(4,2)-thiazola-1(5,3)-indola-6(1,3)-pyridazinacycloundecaphane-4-yl)-2-methylcyclopropane-1-carboxamide [Example 29]	2.8	1.2	–
(1r,2R,3S)-N-((6^3S,4S,Z)-1^1-ethyl-1^2-(5-(3-((S)-hexahydropyrazino[2,1-c][1,4]oxazin-8(1H)-yl)prop-1-yn-1-yl)-2-((S)-1-methoxyethyl)pyridin-3-yl)-10,10-dimethyl-5,7-dioxo-6^1,6^2,6^3,6^4,6^5,6^6-hexahydro-1^1H-8-oxa-2(4,2)-thiazola-1(5,3)-indola-6(1,3)-pyridazinacycloundecaphane-4-yl)-2,3-dimethylcyclopropane-1-carboxamide [Example 40]	1.5	1.35	–
CCn1c(-c2cc(C#Cc3cncnc3N)cnc2C(C)OC)c2c3cc(ccc31)-c1csc(n1)CC(NC(=O)C1C(C)C1C)C(=O)N1CCCC(N1)C(=O)OCC(C)(C)C2 [Example 34, (1r,2R,3S)-N-((6^3S,4S,Z)-1^2-(5-((4-aminopyrimidin-5-yl)ethynyl)-2-((S)-1-methoxyethyl)pyridin-3-yl)-1^1-ethyl-10,10-dimethyl-5,7-dioxo-6^1,6^2,6^3,6^4,6^5,6^6-hexahydro-1^1H-8-oxa-2(4,2)-thiazola-1(5,3)-indola-6(1,3)-pyridazinacycloundecaphane-4-yl)-2,3-dimethylcyclopropane-1-carboxamide]	0.75	1.3	–
CCn1c(-c2cc(C#CCN3CCOCC3)cnc2[C@H](C)OC)c2c3cc(ccc31)-c1csc(n1)C[C@H](NC(=O)[C@H]1[C@H](C)[C@@H]1C)C(=O)N1CCC[C@H](N1)C(=O)OCC(C)(C)C2 [Example 2, (1r,2R,3S)-N-((63S,4S,Z)-11-ethyl-12-(2-((S)-1-methoxyethyl)-5-(3-morpholinoprop-1-yn-1-yl)pyridin-3-yl)-10,10-dimethyl-5,7-dioxo-61,62,63,64,65,66-hexahydro-11H-8-oxa-2(4,2)-thiazola-1(5,3)-indola-6(1,3)-pyridazinacycloundecaphane-4-yl)-2,3-dimethylcyclopropane-1-carboxamide]	0.33	0.25	IC50 (SW480 (G12V); listed as 2'): 74 nM; IC50 (AsPC-1 (G12D); listed as 2'): 172 nM
CCn1c(-c2cc(C#CCN3CCOCC3)cnc2[C@H](C)OC)c2c3cc(ccc31)-c1csc(n1)C[C@H](NC(=O)[C@H]1C[C@@H]1c1ccccc1)C(=O)N1CCC[C@H](N1)C(=O)OCC(C)(C)C2 (single isomer, unassigned) [Example 23]	3.8	1.6	–
(1S,2S)-N-((6^3S,4S,Z)-1^1-ethyl-1^2-(2-((S)-1-methoxyethyl)-5-(((S)-4-methyl-1,1-dioxidothiomorpholin-2-yl)ethynyl)pyridin-3-yl)-10,10-dimethyl-5,7-dioxo-6^1,6^2,6^3,6^4,6^5,6^6-hexahydro-1^1H-8-oxa-2(4,2)-thiazola-1(5,3)-indola-6(1,3)-pyridazinacycloundecaphane-4-yl)-2-methylcyclopropane-1-carboxamide [Example 45]	7.4	5.3	–
CCn1c(-c2cc(C#CCN3CCOC[C@H]3C)cnc2[C@H](C)OC)c2c3cc(ccc31)-c1csc(n1)C[C@H](NC(=O)[C@H]1C[C@@H]1C)C(=O)N1CCC[C@H](N1)C(=O)OCC(C)(C)C2 [Example 15, (1S,2S)-N-((63S,4S,Z)-11-ethyl-12-(2-((S)-1-methoxyethyl)-5-(3-((R)-3-methylmorpholino)prop-1-yn-1-yl)pyridin-3-yl)-10,10-dimethyl-5,7-dioxo-61,62,63,64,65,66-hexahydro-11H-8-oxa-2 (4,2)-thiazola-1(5,3)-indola-6(1,3)-pyridazinacyclonecaphane-4-yl)-2-methylcyclopropane-1-carboxamide]	2.2	1.7	IC50 (SW480 (G12V); listed as 15'): 1060 nM; IC50 (AsPC-1 (G12D); listed as 15'): 1880 nM
CCn1c(-c2cc(C#CCN3CCC4(CC3)CN(C)C4)cnc2[C@H](C)OC)c2c3cc(ccc31)-c1csc(n1)C[C@H](NC(=O)[C@H]1C[C@@H]1C)C(=O)N1CCC[C@H](N1)C(=O)OCC(C)(C)C2 [Example 50, (1S,2S)-N-((6^3S,4S,Z)-1^1-ethyl-1^2-(2-((S)-1-methoxyethyl)-5-(3-(2-methyl-2,7-diazaspiro[3.5]nonan-7-yl)prop-1-yn-1-yl)pyridin-3-yl)-10,10-dimethyl-5,7-dioxo-6^1,6^2,6^3,6^4,6^5,6^6-hexahydro-1^1H-8-oxa-2(4,2)-thiazola-1(5,3)-indola-6(1,3)-pyridazinacycloundecaphane-4-yl)-2-methylcyclopropane-1-carboxamide]	15.2	1.2	–
